According to ChEMBL document CHEMBL5465560, “Selectivity Literature for EUbOPEN Chemogenomic Library” (2024):

Legend:
[1] = target: T1, Receptor-interacting serine/threonine-protein kinase 4 (Homo sapiens) (UniProt P57078); settings: at 10 µM
T1 sequence (whole entry): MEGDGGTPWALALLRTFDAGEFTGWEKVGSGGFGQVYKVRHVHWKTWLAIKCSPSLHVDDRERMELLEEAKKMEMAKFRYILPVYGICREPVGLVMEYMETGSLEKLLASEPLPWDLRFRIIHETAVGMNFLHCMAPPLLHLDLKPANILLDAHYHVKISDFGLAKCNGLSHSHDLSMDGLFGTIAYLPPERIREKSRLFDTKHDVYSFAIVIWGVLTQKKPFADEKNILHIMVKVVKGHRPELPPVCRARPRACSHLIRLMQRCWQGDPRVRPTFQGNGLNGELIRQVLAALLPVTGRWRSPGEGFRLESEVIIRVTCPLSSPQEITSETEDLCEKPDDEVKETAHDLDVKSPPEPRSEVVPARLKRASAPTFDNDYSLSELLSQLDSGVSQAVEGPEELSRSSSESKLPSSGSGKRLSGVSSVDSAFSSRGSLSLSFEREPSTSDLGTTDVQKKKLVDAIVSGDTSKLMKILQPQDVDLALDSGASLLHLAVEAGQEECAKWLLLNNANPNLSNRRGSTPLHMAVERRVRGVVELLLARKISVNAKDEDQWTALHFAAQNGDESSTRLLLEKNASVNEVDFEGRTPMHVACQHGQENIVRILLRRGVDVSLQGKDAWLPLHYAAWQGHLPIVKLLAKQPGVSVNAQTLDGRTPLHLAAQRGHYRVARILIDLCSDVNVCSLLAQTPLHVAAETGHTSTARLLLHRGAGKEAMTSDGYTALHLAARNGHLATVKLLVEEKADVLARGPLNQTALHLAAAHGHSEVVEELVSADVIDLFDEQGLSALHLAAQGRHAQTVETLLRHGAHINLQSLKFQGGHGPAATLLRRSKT

[2] = target: Vascular endothelial growth factor receptor 2 (Homo sapiens, UniProt P35968); assay: Selectivity interaction (Ambit KINOMEscan and KiNATiv profiling in Jurkat cells) EUB0000090b KDR; type: cell-based; settings: at 1 µM
[3] = target: Misshapen-like kinase 1 (Homo sapiens, UniProt Q8N4C8); assay: Selectivity interaction (KinomeScan (DiscoverX)) EUB0000092b MINK1; settings: at 10 µM
[4] = target: T2, Mitogen-activated protein kinase 12 (Homo sapiens) (UniProt P53778); assay: Selectivity interaction (KinomeScan (DiscoverX)) EUB0000607a MAPK12; settings: at 10 µM
T2 sequence (whole entry): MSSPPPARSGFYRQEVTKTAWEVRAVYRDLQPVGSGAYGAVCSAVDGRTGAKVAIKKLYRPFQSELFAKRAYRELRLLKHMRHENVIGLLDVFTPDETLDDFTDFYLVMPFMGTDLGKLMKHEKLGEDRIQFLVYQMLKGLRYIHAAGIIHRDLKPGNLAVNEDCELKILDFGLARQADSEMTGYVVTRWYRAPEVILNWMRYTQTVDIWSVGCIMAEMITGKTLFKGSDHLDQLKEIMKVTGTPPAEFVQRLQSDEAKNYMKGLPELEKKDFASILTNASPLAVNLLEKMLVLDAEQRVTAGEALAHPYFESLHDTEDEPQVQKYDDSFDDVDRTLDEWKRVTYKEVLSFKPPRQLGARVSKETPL

[5] = target: T3, Kinase suppressor of Ras 1 (Homo sapiens) (UniProt Q8IVT5); assay: Selectivity interaction (Kinase panel (KiNativ target engagement assay in Jurkat cells)) EUB0001635a KSR1; type: cell-based; settings: at 1 µM
T3 sequence (whole entry): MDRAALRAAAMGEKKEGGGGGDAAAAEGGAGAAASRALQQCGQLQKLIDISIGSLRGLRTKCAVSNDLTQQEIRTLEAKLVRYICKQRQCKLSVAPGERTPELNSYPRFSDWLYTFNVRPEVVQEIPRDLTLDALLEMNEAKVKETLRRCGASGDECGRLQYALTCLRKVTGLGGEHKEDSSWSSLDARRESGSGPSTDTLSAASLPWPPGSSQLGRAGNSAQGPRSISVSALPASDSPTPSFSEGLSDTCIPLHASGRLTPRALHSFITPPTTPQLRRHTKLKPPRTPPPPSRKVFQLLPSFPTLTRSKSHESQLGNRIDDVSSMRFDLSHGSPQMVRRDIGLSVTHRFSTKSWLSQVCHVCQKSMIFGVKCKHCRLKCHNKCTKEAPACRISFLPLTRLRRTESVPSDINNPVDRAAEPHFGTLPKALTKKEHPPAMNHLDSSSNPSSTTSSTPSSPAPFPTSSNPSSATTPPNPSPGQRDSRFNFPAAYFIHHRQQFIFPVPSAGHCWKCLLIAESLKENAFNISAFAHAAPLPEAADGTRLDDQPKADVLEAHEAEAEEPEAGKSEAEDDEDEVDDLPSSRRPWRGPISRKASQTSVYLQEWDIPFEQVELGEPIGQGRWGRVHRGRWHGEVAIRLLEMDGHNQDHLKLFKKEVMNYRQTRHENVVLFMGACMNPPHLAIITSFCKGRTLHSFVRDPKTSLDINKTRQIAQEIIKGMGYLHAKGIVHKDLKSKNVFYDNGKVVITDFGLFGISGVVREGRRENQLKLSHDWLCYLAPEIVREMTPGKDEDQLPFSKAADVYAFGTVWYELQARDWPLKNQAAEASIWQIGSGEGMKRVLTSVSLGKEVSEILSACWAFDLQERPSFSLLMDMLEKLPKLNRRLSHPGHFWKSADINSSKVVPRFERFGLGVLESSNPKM

[6] = target: Serine/threonine-protein kinase OSR1 (Homo sapiens) (UniProt O95747); assay: Selectivity interaction (Kinase panel (DSF assay)) EUB0001558a OXSR1
Sequence of Serine/threonine-protein kinase OSR1 (Homo sapiens) (O95747 2-527 limits assumed): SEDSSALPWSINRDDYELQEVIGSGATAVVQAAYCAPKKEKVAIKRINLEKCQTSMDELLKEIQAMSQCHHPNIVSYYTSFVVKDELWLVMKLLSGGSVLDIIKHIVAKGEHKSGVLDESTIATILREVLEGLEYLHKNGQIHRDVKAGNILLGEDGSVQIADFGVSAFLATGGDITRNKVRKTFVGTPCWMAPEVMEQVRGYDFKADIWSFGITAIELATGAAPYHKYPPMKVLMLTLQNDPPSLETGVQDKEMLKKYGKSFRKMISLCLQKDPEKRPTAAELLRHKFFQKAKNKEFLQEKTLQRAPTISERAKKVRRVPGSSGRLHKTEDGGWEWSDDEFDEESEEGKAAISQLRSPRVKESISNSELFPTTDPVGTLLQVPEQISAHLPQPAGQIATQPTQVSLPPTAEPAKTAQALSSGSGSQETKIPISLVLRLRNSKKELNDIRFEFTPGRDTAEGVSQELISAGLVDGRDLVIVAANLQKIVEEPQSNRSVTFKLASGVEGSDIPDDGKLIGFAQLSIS

Sequence of Vascular endothelial growth factor receptor 2 (P35968 whole entry): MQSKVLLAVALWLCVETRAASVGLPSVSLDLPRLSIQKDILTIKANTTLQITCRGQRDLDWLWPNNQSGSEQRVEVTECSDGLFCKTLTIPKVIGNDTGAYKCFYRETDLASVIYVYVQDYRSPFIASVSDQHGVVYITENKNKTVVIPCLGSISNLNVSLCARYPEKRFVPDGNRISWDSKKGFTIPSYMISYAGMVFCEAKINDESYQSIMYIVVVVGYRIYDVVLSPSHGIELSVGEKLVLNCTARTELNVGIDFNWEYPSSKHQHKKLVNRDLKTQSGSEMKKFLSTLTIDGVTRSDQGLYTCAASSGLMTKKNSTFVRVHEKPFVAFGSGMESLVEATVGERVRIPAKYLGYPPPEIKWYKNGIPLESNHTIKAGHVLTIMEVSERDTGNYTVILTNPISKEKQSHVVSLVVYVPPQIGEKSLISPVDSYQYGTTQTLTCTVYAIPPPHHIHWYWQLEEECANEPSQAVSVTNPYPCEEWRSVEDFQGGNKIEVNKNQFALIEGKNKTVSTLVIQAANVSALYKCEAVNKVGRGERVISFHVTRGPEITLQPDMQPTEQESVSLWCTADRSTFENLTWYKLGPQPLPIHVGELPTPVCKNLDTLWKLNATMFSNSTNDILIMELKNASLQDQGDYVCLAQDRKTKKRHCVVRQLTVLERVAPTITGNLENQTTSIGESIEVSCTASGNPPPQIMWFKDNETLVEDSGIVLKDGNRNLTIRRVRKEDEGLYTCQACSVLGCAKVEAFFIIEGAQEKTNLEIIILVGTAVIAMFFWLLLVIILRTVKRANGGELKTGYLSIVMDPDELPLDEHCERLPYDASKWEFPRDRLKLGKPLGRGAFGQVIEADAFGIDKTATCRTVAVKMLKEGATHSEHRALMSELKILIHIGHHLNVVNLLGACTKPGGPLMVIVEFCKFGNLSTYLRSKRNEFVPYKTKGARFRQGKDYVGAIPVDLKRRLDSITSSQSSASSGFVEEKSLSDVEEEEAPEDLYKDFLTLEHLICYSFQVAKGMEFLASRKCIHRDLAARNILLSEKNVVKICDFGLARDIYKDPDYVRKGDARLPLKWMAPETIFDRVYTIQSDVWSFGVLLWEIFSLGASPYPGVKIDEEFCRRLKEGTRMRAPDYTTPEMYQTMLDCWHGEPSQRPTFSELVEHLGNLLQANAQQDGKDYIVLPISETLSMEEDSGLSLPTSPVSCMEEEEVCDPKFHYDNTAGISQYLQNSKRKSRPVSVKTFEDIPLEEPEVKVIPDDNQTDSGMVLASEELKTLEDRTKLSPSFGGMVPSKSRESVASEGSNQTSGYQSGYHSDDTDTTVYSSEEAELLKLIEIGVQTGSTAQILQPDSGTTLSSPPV
Sequence of Misshapen-like kinase 1 (Q8N4C8 whole entry, looked up): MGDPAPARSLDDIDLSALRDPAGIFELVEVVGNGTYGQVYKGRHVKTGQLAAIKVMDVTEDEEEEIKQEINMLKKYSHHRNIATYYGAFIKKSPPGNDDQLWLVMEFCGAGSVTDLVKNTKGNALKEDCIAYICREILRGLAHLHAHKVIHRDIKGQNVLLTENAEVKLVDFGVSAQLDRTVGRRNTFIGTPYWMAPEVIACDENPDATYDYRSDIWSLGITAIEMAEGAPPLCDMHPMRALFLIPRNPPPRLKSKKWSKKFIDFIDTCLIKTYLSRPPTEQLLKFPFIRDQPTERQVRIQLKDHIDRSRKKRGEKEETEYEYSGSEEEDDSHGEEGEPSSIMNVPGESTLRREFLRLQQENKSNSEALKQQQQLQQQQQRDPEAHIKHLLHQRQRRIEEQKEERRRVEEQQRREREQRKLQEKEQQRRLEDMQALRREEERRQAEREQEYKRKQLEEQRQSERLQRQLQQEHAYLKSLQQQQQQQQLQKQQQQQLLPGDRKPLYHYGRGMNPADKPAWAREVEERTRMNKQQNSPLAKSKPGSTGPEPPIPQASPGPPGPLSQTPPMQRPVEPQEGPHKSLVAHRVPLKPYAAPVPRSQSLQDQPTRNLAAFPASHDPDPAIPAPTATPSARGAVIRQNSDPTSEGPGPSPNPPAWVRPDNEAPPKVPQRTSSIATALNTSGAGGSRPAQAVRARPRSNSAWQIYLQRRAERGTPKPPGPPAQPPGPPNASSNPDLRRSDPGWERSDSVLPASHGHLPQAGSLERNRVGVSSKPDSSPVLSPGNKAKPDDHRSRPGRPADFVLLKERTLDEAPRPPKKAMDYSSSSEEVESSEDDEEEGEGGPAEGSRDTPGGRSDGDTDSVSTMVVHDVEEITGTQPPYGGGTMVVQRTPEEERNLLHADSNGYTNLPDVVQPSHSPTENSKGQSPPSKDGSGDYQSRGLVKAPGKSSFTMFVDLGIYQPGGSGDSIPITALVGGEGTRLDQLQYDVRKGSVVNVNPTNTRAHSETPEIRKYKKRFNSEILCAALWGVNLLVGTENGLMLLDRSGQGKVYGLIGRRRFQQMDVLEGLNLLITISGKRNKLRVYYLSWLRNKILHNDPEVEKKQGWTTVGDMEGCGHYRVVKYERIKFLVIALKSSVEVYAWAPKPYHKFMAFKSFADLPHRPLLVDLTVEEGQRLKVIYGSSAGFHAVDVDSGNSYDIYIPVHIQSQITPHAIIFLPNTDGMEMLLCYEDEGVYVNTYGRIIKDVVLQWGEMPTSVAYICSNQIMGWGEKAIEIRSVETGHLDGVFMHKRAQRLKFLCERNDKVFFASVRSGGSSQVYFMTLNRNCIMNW

Cc1cc([C@@H](C)Nc2ccccc2C(=O)O)c2nc(N3CCOCC3)cc(=O)n2c1 [AZD-6482]
% of control [1]: 99%

CN(C)C/C=C/C(=O)Nc1ccc(C(=O)N2CCCC(Nc3ncc(Cl)c(-c4c[nH]c5ccccc45)n3)C2)cc1 (stereo unspecified)
% of control [2]: 86%

CCC(=O)N1CCN(c2ccc(-n3c(=O)ccc4cnc5ccc(-c6cnc7ccccc7c6)cc5c43)cc2C(F)(F)F)CC1
% of control [3]: 19%

CNC(=O)Nc1ccc(-c2nc(N3CC4CCC(C3)O4)c3cnn(C4CCC5(CC4)OCCO5)c3n2)cc1
% of control [4]: 54%

C=CC(=O)Nc1ccc(C(=O)Nc2[nH]nc3c2CN(C(=O)N[C@H](CN(C)C)c2ccccc2)C3(C)C)cc1
% of engagement [5]: -1.6%

CC(C)(O)[C@H](F)CN1Cc2cc(NC(=O)c3cnn4cccnc34)c(N3CCOCC3)cc2C1=O
dTM [6]: -0.5 K
